Drawing on patent US10577363B2, “Substituted piperidine compounds” (EPIZYME, INC., priority 2014, dated 2020), this text covers IC50 for 12 compounds.

SMILES strings stand for the structures.

In general, IC50 refers to the concentration at which inhibition is half-maximal.

Assay [1] concerns the target T1, SMYD3 (Homo sapiens (Human), UniProt Q9H7B4). The experiment in a line: SMYD3 cell assay (Trimethyl-MEKK2 In-Cell Western in 293T/17 cells). The format is cell-based. The source says:
Trimethyl-MEKK2-in-Cell Western Assay
MEM/Glutamax medium, Optimem Reduced Serum medium, penicillin-streptomycin, 0.05% trypsin and 1×D-PBS were purchased from Life Technologies, Grand Island, N.Y., USA. PBS-10× was purchased from Ambion, Life Technologies, Grand Island, N.Y., USA. PBS with Tween 20 (PBST (10×)) was purchased from KPL, Gaithersburg, Md., USA. Tet System FBS-approved FBS US Source was purchased from Clontech, Mountain View, Calif., USA. Odyssey blocking buffer, 800CW goat anti-rabbit IgG (H+L) antibody, 680CW Goat anti-mouse IgG (H+L) and Licor Odyssey infrared scanner were purchased from Licor Biosciences, Lincoln, Nebr., USA. Tri-methyl-Lysine [A260]-MEKK2 antibody, MEKK2 and SMYD3 plasmids were made at Epizyme. Anti-flag monoclonal mouse antibody was purchased from Sigma, St. Louis, Mo., USA. Methanol was purchased from VWR, Franklin, Mass., USA. 10% Tween 20 was purchased from KPL, Inc., Gaithersburg, Md., USA. Fugene was purchased from Promega, Madison, Wis., USA. The Biotek ELx405 was purchased from BioTek, Winooski, Vt., USA. The multidrop combi was purchased from Thermo Scientific, Waltham, Mass., USA.
Cell Treatment, in Cell Western (ICW) for Detection of Trimethyl-Lysine-MEKK2 and MEKK2.
Plasmids were prepared for delivery to cells by first mixing 1350 μL Opti-MEM with Fugene (81 μL) in a sterile Eppendorf and incubated for five minutes at room temperature (RT). […] Entire volume of Opti-MEM/Fugene mixture was then added to a microfuge tube containing DNA plasmid, mixed and then incubated×15 minutes at RT. […] Medium was then removed, and cells were washed once with PBS in the flask. Trypsin 0.05% (3 mL) was added and cells incubated for three minutes. Room temperature MEM+10% Tet system FBS was added and cells were mixed gently, and counted using the Vi-cell. Cells were seeded at 100,000 cells/mL in 50 μL MEM/10% Tet FBS/Pen/Strep to a 384 well black/clear poly-D-lysine coated plate containing test agent diluted in DMSO. The final top concentration of test compound was 40 μM. […] Plates were incubated×30 minutes at RT in low-airflow area, followed by incubation at 37° C. under 5% CO2 for 24 hours. Medium was aspirated from all wells of assay plates prior to fixation and permeabilization with ice cold (−20° C.) methanol (90 μL/well) for ten minutes. Plates were rinsed with PBS three times on BioTek ELx405. PBS was removed with a final aspiration, and Odyssey blocking buffer (50 μL/well) was added to each well and incubated for one hour at RT. Primary antibody solution was prepared (anti-trimethyl-MEKK2 at 1:600 dilution plus mouse anti-flag antibody at 1:10,000 dilution in diluent (Odyssey Blocking buffer+0.1% Tween 20)) and 20 μL per well was dispensed using the Multidrop Combi. Assay plates were then sealed with foil, and incubated overnight at 4° C. Plates were washed five times with PBS-Tween (1×) on Biotek ELx405 and blotted on paper towel to remove excess reagent.
First, the ratio for each well was determined by:
Each plate included fourteen control wells of DMSO only treatment (Minimum Inhibition) as well as fourteen control wells for maximum inhibition (Background). The average of the ratio values for each control type was calculated and used to determine the percent inhibition for each test well in the plate. Reference compound was serially diluted two-fold in DMSO for a total of nine test concentrations, beginning at 40 μM.
Percent inhibition was calculated (below).
Non-linear regression curves were generated to calculate the IC50 and dose-response relationship using triplicate wells per concentration of compound.

In assay [2] the target is T1, SMYD3. The experiment in a line: SMYD3 biochemical assay (SPA, 3H-SAM methylation of MEKK2 protein substrate). The method in brief:
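Full-length native human SMYD3 (E. coli-expressed, tags removed) preincubated with compounds 30 min at room temperature, then reaction started with 3H-SAM and GST-tagged MEKK2 protein in 25 mM Tris-Cl pH 8.0, 1 mM TCEP, 0.005% BSG, 0.005% Tween 20. Quenched with unlabelled SAM (100 uM final); 3H-MEKK2 counted by SPA.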

The mark [3] stands for this setting: read-out: SMYD3 Cell IC50 (μM)*.
Where [4] appears, read: read-out: SMYD3 Biochem IC50 (μM)*.

T1 sequence (Q9H7B4 whole entry): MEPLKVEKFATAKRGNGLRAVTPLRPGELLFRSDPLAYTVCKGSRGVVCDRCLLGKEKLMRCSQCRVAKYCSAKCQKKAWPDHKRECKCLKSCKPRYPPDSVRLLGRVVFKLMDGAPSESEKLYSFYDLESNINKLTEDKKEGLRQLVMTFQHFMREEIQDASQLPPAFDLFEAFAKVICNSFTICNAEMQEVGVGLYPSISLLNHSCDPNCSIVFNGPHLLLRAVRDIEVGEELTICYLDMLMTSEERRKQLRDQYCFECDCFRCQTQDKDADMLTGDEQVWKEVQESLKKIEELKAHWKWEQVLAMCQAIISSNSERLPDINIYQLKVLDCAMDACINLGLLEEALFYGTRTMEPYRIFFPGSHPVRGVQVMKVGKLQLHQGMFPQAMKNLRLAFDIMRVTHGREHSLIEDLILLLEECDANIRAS

`CN1CCC(CS(=O)(=O)N2[C@@H]3CC[C@H]2C[C@@H](NC(=O)c2cc(C4CC4)on2)C3)CC1` [Cpd. No. 770, 5-cyclopropyl-N-((1S,3r,5R)-8-((l-methylpiperidin-4-yl)methylsulfonyl)-8-aza-bicyclo[3.2.1]octan-3-yl)isoxazole-3-carboxamide]: the concentration for half-maximal inhibition (IC50) is 0.0192 µM in assay [1] (read-out: SMYD3 Cell IC50*) and 0.00088 µM in assay [2] (read-out: SMYD3 Biochem IC50*).
With `N[C@@H](Cc1ccc(O)c(I)c1)C(=O)N1CCC(NC(=O)c2cc(C3CC3)on2)CC1` [compound 5, (S)-N-(1-(2-amino-3-(4-hydroxy-3-iodophenyl)propanoyl)piperidin-4-yl)-5-cyclopropylisoxazole-3-carboxamide], the half-maximal inhibitory concentration (IC50) stood at 0.809 µM in assay [1] (setting [3]) and 0.116 µM in assay [2] (setting [4]).
As to `NC[C@@H](Cc1ccccc1)C(=O)N1CCC(NC(=O)c2cc(C3CC3)on2)CC1` [compound 10, (R)-N-(1-(3-amino-2-benzylpropanoyl)piperidin-4-yl)-5-cyclopropylisoxazole-3-carboxamide], the IC50 was 1.82 µM in assay [1] (setting [3]) and 0.319 µM in assay [2] (setting [4]).
Turning to `NC[C@H](Cc1ccc(O)c(I)c1)C(=O)N1CCC(NC(=O)c2cc(C3CC3)on2)CC1` [compound 29, (S)-N-(1-(3-amino-2-(4-hydroxy-3-iodobenzyl)propanoyl)piperidin-4-yl)-5-cyclopropylisoxazole-3-carboxamide], the IC50 was 1.1 µM in assay [1] (setting [3]) and 0.0423 µM in assay [2] (setting [4]).
Regarding `CC1CN(S(=O)(=O)CCCN)CCC1NC(=O)c1cc(C2CC2)on1` (stereo not drawn) [compound 46, N-(1-((3-aminopropyl)sulfonyl)-3-methylpiperidin-4-yl)-5-cyclopropylisoxazole-3-carboxamide], the half-maximal inhibitory concentration (IC50) in assay [1] was 1.02 µM; in assay [2] (setting [4]) it was 0.119 µM.
As to `C[C@H]1C[C@H](NC(=O)c2cc(C3CC3)on2)CCN1C(=O)CC1CCNCC1` [compound 56, 5-cyclopropyl-N-((2S,4R)-2-methyl-1-(2-(piperidin-4-yl)acetyl)piperidin-4-yl)isoxazole-3-carboxamide], the half-inhibitory concentration (IC50) in assay [1] (setting [3]) stood at 3.18 µM; in assay [2] (setting [4]), 0.172 µM.
On to `C[C@@H]1C[C@H](NC(=O)c2cc(C3CC3)on2)CCN1C(=O)[C@H]1CC[C@H](N)CC1` [compound 57, N-((2R,4R)-1-((1r,4R)-4-aminocyclohexane-1-carbonyl)-2-methylpiperidin-4-yl)-5-cyclopropylisoxazole-3-carboxamide], for which the concentration for half-maximal inhibition (IC50) amounted to 0.947 µM in assay [1] (setting [3]) and 0.0716 µM in assay [2] (setting [4]).
For the compound `NC[C@@H](Cc1ccc(O)c(Cl)c1)C(=O)N1CCC(NC(=O)c2cc(C3CC3)on2)CC1` [compound 63, (R)-N-(1-(3-amino-2-(3-chloro-4-hydroxybenzyl)propanoyl)piperidin-4-yl)-5-cyclopropylisoxazole-3-carboxamide], the half-maximal inhibitory concentration (IC50) in assay [1] (setting [3]) was 1.44 µM; in assay [2] (setting [4]) it was 0.139 µM.
In the case of `C[C@@H]1CN(S(=O)(=O)CCN)CCC1NC(=O)c1cc(C2CC2)on1` (stereo partly drawn) [compound 65, N-((3R)-1-((2-aminoethyl)sulfonyl)-3-methylpiperidin-4-yl)-5-cyclopropylisoxazole-3-carboxamide], the half-maximal inhibitory concentration (IC50) came out at 1.05 µM in assay [1] (setting [3]) and 0.205 µM in assay [2] (setting [4]).
The like results for `C[C@H]1CN(S(=O)(=O)CCN)CCC1NC(=O)c1cc(C2CC2)on1` (stereo partly drawn) [compound 66, N-((3S)-1-((2-aminoethyl)sulfonyl)-3-methylpiperidin-4-yl)-5-cyclopropylisoxazole-3-carboxamide] were, in that order, 3.72 µM and 0.59 µM.
The like results for `C[C@@H]1CC(NC(=O)c2cc(C3CC3)on2)CCN1S(=O)(=O)CCN` (stereo partly drawn) [compound 77, N-((2R)-1-((2-aminoethyl)sulfonyl)-2-methylpiperidin-4-yl)-5-cyclopropylisoxazole-3-carboxamide] were, in that order, 2.91 µM and 0.633 µM.
With `C[C@H]1CC(NC(=O)c2cc(C3CC3)on2)CCN1S(=O)(=O)CCN` (stereo partly drawn) [compound 78, N-((2S)-1-((2-aminoethyl)sulfonyl)-2-methylpiperidin-4-yl)-5-cyclopropylisoxazole-3-carboxamide], the half-inhibitory concentration (IC50) was 0.792 µM in assay [1] (setting [3]) and 0.155 µM in assay [2] (setting [4]).
